Measurements from ChEMBL document CHEMBL1201862, “PubChem BioAssay data set” (2004).
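Protocol summary: plate cells (96-well), add compound at 5 concentrations, incubate 48 h, interpolate endpoints linearly. At the GI50, growth is halved.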 Active and inactive are the calls of the source. Rule as the data show it: active = GI50 up to about 1.1 µM and inactive = higher.

Tests used:
Test in all cases: NCI tumour cell line growth inhibition, 48 h
[1] = tested on: SK-OV-3
[2] = tested on: M14
[3] = tested on: OVCAR-3
[4] = tested on: SNB-19
[5] = tested on: CAKI-1
[6] = tested on: A549
[7] = tested on: SF-295
[8] = tested on: SN12C
[9] = tested on: HOP-62
[10] = tested on: EKVX
[11] = tested on: MOLT-4
[12] = tested on: RPMI-8226
[13] = tested on: HCC 2998
[14] = tested on: IGROV-1
[15] = tested on: LOX IMVI
[16] = tested on: RXF 393
[17] = tested on: K562
[18] = tested on: HCT-116
[19] = tested on: NCI-H23
[20] = tested on: SNB-75

Measured: GI50

c1ccc2c(c1)C(=Nc1ccc(N=C3c4ccccc4-c4ccccc43)cc1)c1ccccc1-2
inactive: [1] > 100 µM | [2] > 100 µM | [3] > 100 µM | [4] > 100 µM | [5] > 100 µM | [6] > 100 µM | [7] > 100 µM | [8] > 100 µM | [9] > 100 µM | [10] > 100 µM | [11] > 100 µM | [12] > 100 µM | [13] > 100 µM | [14] > 100 µM | [15] > 100 µM | [16] > 100 µM | [17] > 100 µM | [18] > 100 µM | [19] > 100 µM

CCCCCCN(CCCCCC)CCC(=O)c1ccc2cc(Br)c3ccccc3c2c1
inactive: [1] 39.1 µM | [2] 82.6 µM | [3] 33 µM | [4] 44.3 µM | [5] 66.7 µM | [6] > 100 µM | [7] 59 µM | [8] 34 µM | [9] 40.4 µM | [10] > 100 µM | [12] 9.31 µM | [13] 41.3 µM | [14] 40.3 µM | [15] 32 µM | [16] 20.7 µM | [17] 41.1 µM | [18] 78.3 µM | [19] 81.8 µM

COc1ccc(OCC(=O)O)c2c1CCC(C(C)C)C2=O (configuration not stated)
inactive: [1] > 100 µM | [2] > 100 µM | [3] > 100 µM | [4] > 100 µM | [5] > 100 µM | [6] > 100 µM | [7] > 100 µM | [9] > 100 µM | [10] > 100 µM | [11] > 100 µM | [12] > 100 µM | [13] > 100 µM | [14] > 100 µM | [15] > 100 µM | [17] > 100 µM | [18] > 100 µM | [19] > 100 µM

Oc1ccc(Br)cc1/C=N/C1CCCCC1
inactive: [1] 55.3 µM | [2] 34.8 µM | [3] 13.1 µM | [4] 53 µM | [5] > 100 µM | [6] > 100 µM | [7] 41.8 µM | [9] 45.4 µM | [10] > 100 µM | [11] 18.8 µM | [12] 28.1 µM | [13] 25.5 µM | [14] 24.1 µM | [15] 13.3 µM | [16] > 100 µM | [17] 17.7 µM | [18] 12.4 µM | [19] 34.4 µM
active: [8] < 0.01 µM

N#C/C(c1nc2ccccc2[nH]1)=c1\s/c(=C/c2ccc(Cl)cc2)c(=O)n1-c1ccccc1
inactive: [1] > 100 µM | [2] > 100 µM | [3] > 100 µM | [20] 37.3 µM | [4] > 100 µM | [5] > 100 µM | [6] > 100 µM | [8] > 100 µM | [9] > 100 µM | [10] > 100 µM | [11] > 100 µM | [12] > 100 µM | [13] > 100 µM | [14] 15.7 µM | [15] > 100 µM | [17] > 100 µM | [18] > 100 µM | [19] > 100 µM

O=C(O)CSc1nnc(-c2ccc(O)cc2)[nH]1
inactive: [1] > 100 µM | [2] > 100 µM | [3] > 100 µM | [20] 41 µM | [4] > 100 µM | [5] > 100 µM | [6] > 100 µM | [7] > 100 µM | [8] > 10 µM | [9] > 100 µM | [10] > 100 µM | [11] > 100 µM | [12] > 100 µM | [13] > 100 µM | [14] > 100 µM | [17] > 100 µM | [18] > 100 µM | [19] > 100 µM

C/C(=N\NC(=O)CC#N)C(CN1CCCCC1)C(c1ccccc1)c1c(O)c2ccccc2oc1=O (configuration not stated)
inactive: [1] 64 µM | [2] 68.5 µM | [3] 47.5 µM | [20] 67.5 µM | [4] 80.4 µM | [5] 64.7 µM | [6] 45.7 µM | [10] > 100 µM | [11] 26.5 µM | [12] 33.7 µM | [13] 55.7 µM | [14] 77.6 µM | [15] 17.4 µM | [17] 55 µM | [18] 62.2 µM | [19] 46.2 µM

CSc1ncnc2c1ncn2CC(=O)C1CCC2C3CCC4=CC(=O)CCC4(C)C3CCC12C (configuration not stated)
inactive: [1] 16.3 µM | [2] 2.4 µM | [3] 4.25 µM | [20] 5.19 µM | [4] 19.2 µM | [5] 10 µM | [6] 6.81 µM | [7] 3.21 µM | [8] 18.3 µM | [9] 2.42 µM | [10] 5.55 µM | [11] 1.69 µM | [12] 1.45 µM | [14] 6.95 µM | [15] 4.38 µM | [16] 12 µM | [17] 3.47 µM | [18] 4.15 µM | [19] 3.79 µM

CN(CC(=O)O)c1ncc2c(n1)-c1ccccc1CC2
inactive: [1] > 100 µM | [2] > 100 µM | [3] > 100 µM | [20] 74.8 µM | [4] > 100 µM | [5] > 100 µM | [6] > 100 µM | [7] > 100 µM | [8] > 100 µM | [9] > 100 µM | [10] > 100 µM | [11] > 100 µM | [12] > 100 µM | [14] > 100 µM | [15] > 100 µM | [16] > 100 µM | [17] > 100 µM | [18] > 100 µM | [19] > 100 µM

CCOC(=O)CC[C@H](NC(=O)c1nc[nH]c1[N+](=O)[O-])C(=O)OCC
inactive: [1] > 100 µM | [2] > 100 µM | [3] > 100 µM | [4] > 100 µM | [6] > 100 µM | [7] > 100 µM | [8] > 100 µM | [9] > 100 µM | [10] > 100 µM | [11] > 100 µM | [12] > 100 µM | [13] > 100 µM | [14] > 100 µM | [15] > 100 µM | [16] > 100 µM | [17] > 100 µM | [18] > 100 µM | [19] > 100 µM

COc1ccc(C2=Nn3c(nnc(Cc4ccc(Cl)cc4)c3=O)SC2)cc1
inactive: [1] 55.3 µM | [2] 31.5 µM | [3] 28.2 µM | [4] 53.2 µM | [5] 38.7 µM | [6] 51.3 µM | [7] 34.3 µM | [8] 61.2 µM | [9] 62.1 µM | [10] 52.2 µM | [11] 26.7 µM | [12] 23.1 µM | [13] 55.1 µM | [14] 51.1 µM | [15] 34.9 µM | [16] 27.7 µM | [17] 24.3 µM | [18] 28.1 µM | [19] 35.4 µM

CN(C)/C=C/c1c2c(nc3ccccc13)C(=O)c1ccccc1C2=O
active: [2] 0.586 µM | [7] 0.875 µM | [9] 0.266 µM | [11] 1.03 µM | [12] 0.0989 µM | [15] 0.067 µM | [17] 0.151 µM | [18] 0.923 µM | [19] 0.194 µM
inactive: [1] 3.91 µM | [4] 1.83 µM | [5] 2.06 µM | [6] 2.33 µM | [8] 1.26 µM | [10] 1.89 µM | [13] 1.93 µM | [14] 1.19 µM | [16] 3.2 µM

CSc1ccc(C=C2N=C(c3ccccc3)N(c3cc(C(=O)c4ccccc4)ccc3N3C(=O)/C(=C/c4ccc(SC)cc4)N=C3c3ccccc3)C2=O)cc1
inactive: [1] > 100 µM | [2] 76.9 µM | [3] 22.2 µM | [20] 16 µM | [4] > 100 µM | [5] 56.1 µM | [6] 43.5 µM | [7] 44.1 µM | [8] 76.6 µM | [9] 79.8 µM | [10] > 100 µM | [11] 23.7 µM | [12] 25.4 µM | [13] 46 µM | [14] 81.3 µM | [15] 32.1 µM | [17] 46 µM | [18] 59.3 µM

COc1ccc(-c2nc(N)c(C#N)c3c2CCS(=O)(=O)c2ccc(C)cc2-3)cc1OC
inactive: [2] 28.4 µM | [3] 39.6 µM | [20] 23.7 µM | [4] 27.5 µM | [5] 27 µM | [6] 26.4 µM | [8] 50.2 µM | [9] 33.2 µM | [13] 27.6 µM | [14] 31.6 µM | [15] 48.3 µM | [17] 10.7 µM | [18] 31.5 µM | [19] 31.5 µM

CCN(CC)C(=S)SS(=O)(=O)c1ccc(Cl)cc1
inactive: [1] 64.3 µM | [2] 17.3 µM | [3] 31.7 µM | [4] 38.3 µM | [5] 19.8 µM | [7] 38.7 µM | [8] 20.2 µM | [9] 22.7 µM | [10] > 100 µM | [12] 15 µM | [13] > 100 µM | [15] 15.4 µM | [16] 17.6 µM | [17] 14.5 µM | [18] 30.3 µM | [19] 38.5 µM
active: [6] 0.484 µM
